# Measured values: patent US11602532B2, “Nanoparticle formulations of decoquinate in the form of solid solution” (CAS Lamvac (Guangzhou) Biomedical Technology Co., Ltd., priority 2019, dated 2023)
# Read-outs that look alike come from different tables or passages of the source.
# Experiments:
# Pf3D7 = assay: Malaria SYBR fluorescence (MSF) blood stage assay, Pf3D7; format: cell-based; details: Plasmodium falciparum, read-out: IC50 (nM) Mean
# Protocol: (§1) Fifteen different preparations of decoquinate solid solutions as described in Examples were tested in cell culture assays to assess the growth inhibition of blood stage Plasmodium in freshly isolated human blood cells and the growth inhibition of Plasmodium in the liver stage in cell culture of HepG2 cells. The malaria SYBR fluorescence (MSF) assay was performed to detect the parasite DNA of Plasmodium falciparum in late-ring or early-trophozoite stages. […] The intensity of fluorescence generated by the binding of SYBR Green I dye to Plasmodium DNA is quantitatively proportional to the number of parasites. The detailed description of method refers to SOP of the inventors.
# (§2) Chloroquine and artemisinin were used as positive controls in the same experiments.
# pfDd2 = assay: Malaria SYBR fluorescence (MSF) blood stage assay, pfDd2; format: cell-based; details: Plasmodium falciparum, read-out: IC50 (nM) Mean
# Protocol: as §1, §2
# Pf803 = assay: Malaria SYBR fluorescence (MSF) blood stage assay, Pf803; format: cell-based; details: Plasmodium falciparum, read-out: IC50 (nM) Mean
# Protocol: as §1, §2
# (§3) The HME solid solutions were treated with alkaline buffer (pH 9), or with high temperature (60° C.) or with high humidity (92%) for 5 or 10 days respectively and then used for testing decoquinate inhibitory effects in in vitro blood stage experiments using freshly prepared red blood cells infected with Plasmodium Pf803 or PfB12D9. The base pH was neutralized by dialysis of decoquinate HME samples before used in cell culture experiments.
# pfB74F6 (PS) = assay: Malaria SYBR fluorescence (MSF) blood stage assay, pfB74F6; format: cell-based; details: Plasmodium falciparum, read-out: IC50 (nM) Mean
# Protocol: as §1, §2
# pfB47D6 (PS) = assay: Malaria SYBR fluorescence (MSF) blood stage assay, pfB47D6; format: cell-based; details: Plasmodium falciparum, read-out: IC50 (nM) Mean
# Protocol: as §1, §2
# pfB64G11 (PS) = assay: Malaria SYBR fluorescence (MSF) blood stage assay, pfB64G11; format: cell-based; details: Plasmodium falciparum, read-out: IC50 (nM) Mean
# Protocol: as §1, §2
# pfB74C4 (PS) = assay: Malaria SYBR fluorescence (MSF) blood stage assay, pfB74C4; format: cell-based; details: Plasmodium falciparum, read-out: IC50 (nM) Mean
# Protocol: as §1, §2
# pfB12D9 (PS) = assay: Malaria SYBR fluorescence (MSF) blood stage assay, pfB12D9; format: cell-based; details: Plasmodium falciparum, read-out: IC50 (nM) Mean
# Protocol: as §1
# Table 6 is the results showing in vitro antimalarial potency of decoquinate HME formulations prepared from Example 8 (F8) and Example 15 (F15). […] Chloroquine and artemisinin were used as positive controls in the same experiments.
# as §3
# [1] = HPLC analysis of decoquinate after HME, acid or alkaline treatment; format: physicochemical; details: treated with pH 1.2 solution for 2 days
# Protocol: Samples are dialyzed against distilled water, diluted and analyzed with the established method. […] Differential scanning calorimetry (DSC) analysis and X-ray diffraction analysis were performed for the selected formulations in the Examples described above.
# [2] = test system: Plasmodium berghei ANKA 868 expressing luciferase; assay: Inhibition of liver stage development assay (ILSDA) in HepG2 cells; format: cell-based; details: HepG2, read-out: PQ Mean (IC50)
# Protocol: For the inhibition of liver stage development assay (ILSDA), HepG2 liver cells were cultured with Plasmodium berghei sporozoite expressing firefly luciferase in the presence of a series of dilutions of test compound. In the case of formulations, the compound concentration was determined by the quantitation of HPLC. […] The culture was maintained in microtiter plates for 48 hours after sporozoite invasion and intracellular proliferation of P. berghei parasites in HepG2 cells. The growth inhibition of the parasites by the test compound or the compound complexed with the excipients was determined by measuring the luminescent intensity produced by the process of luciferase catalyzing the substrates which were added by the end of incubation.
# The experiments were carried out on HepG2 cells incubated with the sporozoites isolated from salivary glands of infected mosquitoes. […] The results were expressed by the half maximal inhibition concentration (IC50).
# [3] = test system: Plasmodium berghei ANKA (Pb 868 sporozoites); assay: Causal prophylactic efficacy against sporozoite inoculation in NIH-Swiss female mice; format: in vivo
# Protocol: The NIH-Swiss female mice used for the experiment were raised for at least 7 days after arrival. At the start of the experiment, the mice were 7 weeks old. Only one mouse was housed in each cage and maintained in a room with a temperature range of 18 to 26° C. with a relative humidity of 34% to 68% in a 12/12h light-dark cycle. Food and water were provided ad libitum during quarantine and throughout the study. This experiment was carried out in strict accordance with the relevant animal testing regulations (the Chinese State Council's Laboratory Animal Management Regulations, Revised Mar. 1, 2017). The decoquinate suspension used in the animal experiment was from the product of Examples 2, 8, 9, 11, 12 and 15 (F2, F8, F9, F11, F12 and F15), prepared with saline and subjected to ultrasonic treatment for 5 minutes. Each animal experiment was repeated at least three times with a group of 5 each time, so that at least 15 mice were tested in each group. The mice were inoculated with Plasmodium parasites by an injection of 50,000 sporozoites of Plasmodium berghei ANKA (Pb 868 sporozoites) through the tail vein of each mouse. Testing compound or formulation compound was administered to mice by PO (oral administration, by the manually intragastric method) the day before, the day of, and the next day after Plasmodium inoculation. The formulation compound suspended in saline were quantitated by HPLC method before dosing animals. The positive control was primaquine, an antimalarial drug used for the liver-stage Plasmodium. The vehicle control was the components used in the solid dispersion of decoquinate other than decoquinate. No anti-malarial activity was found with the vehicle control, the results of which were consistent with those obtained by using only saline as a negative control. The detection of Plasmodium parasitemia was performed as follows: a conventional method was used to count red blood cells per mm^3 of blood in that a thin film of blood was prepared and stained with 3% Giemsa for 20 minutes; and then the number of infected red blood cells per 1000 red blood cells was counted under oil microscope to obtain erythrocyte infected rate (EIR, ‰). If the parasites were not seen in the thin film, the thick film was prepared for detection of parasites and the results expressed as the parasite number per 100 white blood cells (WBC). Survival rates were calculated on day 60 post-infection for the still live mice versus the dead mice.
# […] The results shown were the number of infected mice on day 12 from the microscopic detection of parasites of thin or thick films. The results also include the protection rate on day 12 and survival rate on day 60. The products from F8, F9, F11 and F15 have 100% survival rates whereas PQ, F2 and F12 have survival rates of 80%.
# Table 8 illustrates efficacy studies of the HME compositions prepared in various examples in mice infected with Plasmodium berghei expressing luciferase; wherein decoquinate given to animals at a dose of 5 mg per kg was in the saline suspension of F2, F8, F9, F11, F12, and […] HME preparations; the saline group as a negative control; PQ represents the primaquine group used as a positive control at a dose of 30 mg per kg body weight. […] Protection rates were calculated according to the data of parasitemia detection in mice on day 12 of Plasmodium sporozoite inoculation and the survival rates in each group on day 60 post the sporozoite inoculation.
# [4] = primaquine 20 mg/kg (table), intragastric, 3 daily doses, 5 mice per group
smiles,measurement,setting,value
C[C@@H]1CC[C@H]2[C@@H](C)C(=O)O[C@@H]3O[C@@]4(C)CC[C@@H]1[C@]32OO4 [Artemisinin],IC50,"Pf3D7; blood stage, Pf3D7, 72h",23.1 nM
same,IC50,"pfDd2; blood stage, pfDd2 (multidrug resistance including chloroquine), 72h",26 nM
same,IC50,"Pf803; blood stage, Pf803 (chloroquine resistance), 72h",32 nM
same,IC50,"pfB74F6 (PS); blood stage, pfB74F6, sample collected from patients",14.5 nM
same,IC50,"pfB47D6 (PS); blood stage, pfB47D6, sample collected from patients",25.4 nM
same,IC50,"pfB64G11 (PS); blood stage, pfB64G11, sample collected from patients",6.66 nM
same,IC50,"pfB74C4 (PS); blood stage, pfB74C4, sample collected from patients",26.4 nM
same,IC50,pfB12D9 (PS),24.1 nM
"CCCCCCCCCCOc1cc2c(O)c(C(=O)OCC)cnc2cc1OCC [Decoquinate, ethyl-6-decyloxy-7-ethoxy-4-hydroxyquinoline-3-carboxylate]",peak pattern and retention time of decoquinate in HPLC,[1],change in the peak pattern and the shift in the retention time
CCN(CC)CCCC(C)Nc1ccnc2cc(Cl)ccc12 (centres unmarked) [Chloroquine],IC50,Pf3D7; 72 h,57.5 nM
same,IC50,pfDd2; 72 h,244 nM
same,IC50,Pf803; 72 h,957 nM
same,IC50,pfB74F6 (PS),79.2 nM
same,IC50,pfB47D6 (PS),78.2 nM
same,IC50,pfB64G11 (PS),30.4 nM
same,IC50,pfB74C4 (PS),59.3 nM
same,IC50,pfB12D9 (PS),63.3 nM
"COc1cc(NC(C)CCCN)c2ncccc2c1 (centres unmarked) [PQ, primaquine]",IC50,[2],1.73 µM
same,survival rate,"[3]; 30 mg primaquine per kg body weight, day 60",80%
same,Infected (Day 12),[3]; [4],2
same,Protected rate (Day 12),[3]; [4],60
same,Survival rate (Day 32),[3]; [4],80%
same,Survived (Day 32),[3]; [4],4
